Here are results for 1 compound from paper PMC6154339, “Synthesis, Characterization, Antimicrobial and Antiproliferative Activity Evaluation of Cu(II), Co(II), Zn(II), Ni(II) and Pt(II) Complexes with Isoniazid-Derived Compound” (Molecules : A Journal of Synthetic Chemistry and Natural …, 2017).

Converted amounts (≈) assume the structure as drawn.

One data set in a line: in vivo. Conditions: Daphnia magna.
For data set [1], the system named is SKBR-3 human breast cancer cell line. Description: Alamar blue cell viability assay. It is filed as cell-based. Conditions: Homo sapiens, SK-BR-3, 48 h treatment, relative to untreated control. As for the experimental part: (§1) Compounds HL, 1, 5, 6 and 8 were dissolved in dimethyl sulfoxide (DMSO; Sigma-Aldrich, Ayrshire, UK) and stored at 2–8 °C. Compounds 2, 3, 4 and 7 were dissolved in pyridine (Fluka, Munich, Germany). A stock solution of 10 mM in the proper solvents was prepared; as for the final concentration (10 µM), successive dilution of the stock solution with culture medium was made.
(§2) The breast cancer cell lines were cultured as follow: MCF-7 human breast cancer cell line (ATCC, Rockville, MD, USA) was cultured in EMEM (Sigma Aldrich, Munich, Germany) supplemented with 10% FCS (fetal bovine serum, PromoCell, Heidelberg, Germany), 1% penicillin-streptomycin (Pen/Strep, 10,000 IU/mL; PromoCell, Heidelberg, Germany), 1% nonessential amino acids and 1% glutamine (PromoCell, Heidelberg, Germany). SKBR-3 human breast cancer cell line was cultured in McCoy’s 5a Medium Modified (Sigma Aldrich, Munich, Germany) supplemented with 10% FCS (fetal bovine serum, PromoCell, Heidelberg, Germany), 1% penicillin-streptomycin (Pen/Strep, 10,000 IU/mL; PromoCell, Heidelberg, Germany). A375 human melanoma cell line was cultured in DMEM containing 15% FCS (fetal bovine serum, PromoCell, Heidelberg, Germany) and 1% penicillin-streptomycin (Pen/Strep, 10,000 IU/mL; PromoCell, Heidelberg, Germany). Cells were maintained at an atmosphere of 5% CO2 at 37 °C. NCI-H1573 lung adenocarcinoma cell line was cultured in RPMI-1640 Medium (ATCC, Rockville, MD, USA) supplemented with 10% FCS (fetal bovine serum, PromoCell, Heidelberg, Germany), 1% penicillin-streptomycin (Pen/Strep, 10,000 IU/mL; PromoCell, Heidelberg, Germany).
(§3) All tested cell lines were seeded onto a 96-well microplate ([…]) and left overnight to attach to the bottom of the well. After 24 h, the amount of 150 μL of the tested substances dissolved into the culture medium was added and cells were incubated for 48 h. After the incubation period, a volume of 15 μL of the Alamar blue (BioSource, Camarillo, CA, USA) solution was added. After another 10 h of incubation at 37 °C, the samples were spectrophotometrically analyzed using a microplate reader. The wave lengths used were 570 nm and 600 nm, respectively. Wells with untreated cells were used as controls. The highest concentration of DMSO and pyridine (0.1%) used to prepare stock solutions was also tested, in order to identify the solvent activity. All measurements were performed in triplicate and data were presented as mean ± standard deviation.
In general terms: Alamar Blue is a resazurin reagent that responds to reducing activity.

Data set [2] relates to A375 human melanoma cell line. Description: Alamar blue cell viability assay. Conditions: Homo sapiens, A-375, 48 h treatment, relative to untreated control. It is filed as cell-based. As for the experimental part: as §1, §2, §3
In data set [3] the test system is NCI-H1573 lung adenocarcinoma cell line. Description: Alamar blue cell viability assay. The data set is classed as cell-based. Particulars: Homo sapiens, NCI-H1573, 48 h, 48 h treatment, relative to untreated control. As for the experimental part:
as §1, §2, §3

Data set [4] has as its system MCF-7 human breast cancer cell line. Description: Alamar blue cell viability assay. It is filed as cell-based. Conditions: Homo sapiens, MCF7, 48 h, 48 h treatment, relative to untreated control. As for the experimental part:
as §1, §2, §3

Data set [5] can be described thus: Solubility in compendial aqueous media. It is filed as physicochemical. Conditions: kinetic from dmso stock, 37 °C, mean ± standard deviation, n = 3. As for the experimental part:
Solubility assessment was conducted in compendial aqueous solutions prepared according to United States Pharmacopoeia USP39/NF34): hydrochloric acid 0.1 N pH 1.2, acetate buffer pH 4.5 and phosphate buffer 6.8. These buffer systems are routinely used for screening of drug dissolution testing and they simulate the pH values of proximal gastrointestinal regions. The standard samples were prepared by diluting the stock solution of 80 µg/mL in dimethyl sulfoxide (with 0.2% pyridine, v/v) with corresponding media. The reagents were of analytical grade and used as received.
The assay was performed using a SpectraMax Plus 84 Plate reader reader (Sunnyvale, CA, USA), Molecular Devices LLC (US), equiped with SoftMax software version 6.4.2 (Sunnyvale, CA, USA). Separate plates were loaded with standard solutions in nine concentrations (0.2 to 80 µg/mL). For evaluation of the aqueous solubility, the samples were prepared in triplicate by adding 10 µL of the stock solution to the wells loaded with 190 µL of each buffer, using MultiScreen HTS plates (PCF, code MSSLBPC, Merck Millipore, Darmstadt, Germany). After 30 minutes of incubation at 37 ± 0.5 °C under agitation (250 rpm, IKA KS 4000 ic control, IKA, Staufen, Germany), the plates were filtrated under vacuum using a Vac-Man 96 Vacuum manifold (Promega Corporation, Madison, WI, USA). The solutions were collected in V-bottom polypropylene 96-well microplates (Greiner Bio-One, Kremsmünster, Austria). Volumes of 100 µL were transferred to UV-Star 96-well microplate with flat bottom (Chimney well, Grained Bio-One) and diluted by addition of 100 µL of the corresponding medium. The absorbance corresponding to each well was determined at fixed wavelengths: 280, 300, 320, 340, 360 and 800 nm. The reduced value of absorbance, calculated by the sum of the values recorded at the six wavelengths, were used for the calibration curve and subsequent determination of concentration in each solubility sample.

As to `COc1cccc(/C=N/NC(=O)c2ccncc2)c1O` [HL, N-isonicotinoyl-N′-(3-metoxy-2 hydroxybenzaldehyde)-hydrazone], the LC50 turned out to be 53.1 µM in the data set “in vivo” (LC50, incubation period 24 h) and 52.6 µM in the data set “in vivo” (LC50, incubation period 48 h). Besides, the viability at 10 µM in data set [1] is 76.3%; in data set [2] it was 82.4%; in data set [3], 29.2%; in data set [4], 21.5%. The solubility at 30 min in data set [5] (aqueous buffer, Acetate Buffer (pH = 4.5)) is 3.49 ± 0.41 µg/mL (≈ 12.9 µM); in data set [5] (aqueous buffer, Phosphate Buffer (pH = 6.8)) it was 0.25 ± 0.02 µg/mL (≈ 0.922 µM); in data set [5] (simulated gastric fluid, Hydrochloric Acid 0.1 N (pH = 1.2)), 2.02 ± 0.02 µg/mL (≈ 7.45 µM).

As a reminder, the LC50 is the concentration lethal to half of the exposed cells or organisms. As a reminder, the viability is a per cent measure of how many cells are alive, often set against a control. Read a low viability as more harm to the cells. The term solubility denotes the concentration that dissolves in the medium under given conditions.
